{"source": "patent US20190091187A1", "about": "(Orbus Therapeutics, Inc., priority 2016, published 2019)", "key": {"[1]": {"tested_on": "Big Blue Rat-2 cells", "settings": "9.1 at 0 mM, cited from earlier work"}, "[2]": {"tested_on": "low-grade gliomas", "settings": "adjuvant chemotherapy; recurrent tumors; driver mutations in RB and AKT-mTOR pathways; cited from earlier work"}, "[3]": {"tested_on": "newly diagnosed AG and GBM patients", "assay": "Phase 3 study of eflornithine with PCV versus PCV, adverse events", "format": "in vivo, human", "settings": "Eflornithine-PCV minus PCV, N = 500", "excerpt": "As used herein, the term “toxicity” refers to any one of the side effects referred to above in Table 2, regardless of the severity of the side effect or its possible effect on the course of treatment."}, "[4]": {"tested_on": "neuroblastoma cells", "settings": "arrest of cell division between G1 and mitosis; cited from earlier work"}, "[5]": {"tested_on": "biopsied skin actinic keratosis", "settings": "topical, compared to placebo-treated skin, cited from earlier work"}, "[6]": {"tested_on": "AG and GBM patients treated at recurrence", "settings": "3.6 g/m^2 every 8 hours, N = 89, cited from earlier work"}}, "note": "Where two headings read alike, the source gives them in different places.", "data": [{"molecule": "Cn1nnc2c(C(N)=O)ncn2c1=O", "note": "[TMZ, temozolomide]", "values": [{"measurement": "lacI mutation frequency", "setting": "[1]; 0.5 mM TMZ", "value": 48.9}, {"measurement": "lacI mutation frequency", "setting": "[1]; 1 mM TMZ", "value": 89.7}, {"measurement": "patients whose tumors followed an alternative evolutionary path to high-grade glioma with hypermutation", "setting": "[2]", "value": "6 of 10"}]}, {"molecule": "eflornithine", "values": [{"measurement": "Anemia, Excess AEs due to Eflornithine", "setting": "[3]; Toxicity Grade 1", "value": 12.5, "unit": "%"}, {"measurement": "Anorexia, Excess AEs due to Eflornithine", "setting": "[3]; Toxicity Grade 1", "value": "−1.5", "unit": "%"}, {"measurement": "Constipation, Excess AEs due to Eflornithine", "setting": "[3]; Toxicity Grade 1", "value": "−1.9", "unit": "%"}, {"measurement": "Diarrhea, Excess AEs due to Eflornithine", "setting": "[3]; Toxicity Grade 1", "value": 25.4, "unit": "%"}, {"measurement": "Fatigue, Excess AEs due to Eflornithine", "setting": "[3]; Toxicity Grade 1", "value": 4.7, "unit": "%"}, {"measurement": "Granulocytopenia, Excess AEs due to Eflornithine", "setting": "[3]; Toxicity Grade 1", "value": 2.4, "unit": "%"}, {"measurement": "Headache, Excess AEs due to Eflornithine", "setting": "[3]; Toxicity Grade 1", "value": "−1.9", "unit": "%"}, {"measurement": "Hearing loss, Excess AEs due to Eflornithine", "setting": "[3]; Toxicity Grade 1", "value": 0.0, "unit": "%"}, {"measurement": "Leukopenia, Excess AEs due to Eflornithine", "setting": "[3]; Toxicity Grade 1", "value": "−3.4", "unit": "%"}, {"measurement": "Nausea only, Excess AEs due to Eflornithine", "setting": "[3]; Toxicity Grade 1", "value": 1.0, "unit": "%"}, {"measurement": "Pruritis and itching, Excess AEs due to Eflornithine", "setting": "[3]; Toxicity Grade 1", "value": "−0.7", "unit": "%"}, {"measurement": "Thrombocytopenia, Excess AEs due to Eflornithine", "setting": "[3]; Toxicity Grade 1", "value": 4.6, "unit": "%"}, {"measurement": "Vomiting, Excess AEs due to Eflornithine", "setting": "[3]; Toxicity Grade 1", "value": 5.2, "unit": "%"}, {"measurement": "Anemia, Excess AEs due to Eflornithine", "setting": "[3]; Toxicity Grade 2", "value": 15.6, "unit": "%"}, {"measurement": "Anorexia, Excess AEs due to Eflornithine", "setting": "[3]; Toxicity Grade 2", "value": 2.5, "unit": "%"}, {"measurement": "Constipation, Excess AEs due to Eflornithine", "setting": "[3]; Toxicity Grade 2", "value": "−0.7", "unit": "%"}, {"measurement": "Diarrhea, Excess AEs due to Eflornithine", "setting": "[3]; Toxicity Grade 2", "value": 17.4, "unit": "%"}, {"measurement": "Fatigue, Excess AEs due to Eflornithine", "setting": "[3]; Toxicity Grade 2", "value": 6.9, "unit": "%"}, {"measurement": "Granulocytopenia, Excess AEs due to Eflornithine", "setting": "[3]; Toxicity Grade 2", "value": 1.1, "unit": "%"}, {"measurement": "Headache, Excess AEs due to Eflornithine", "setting": "[3]; Toxicity Grade 2", "value": 1.3, "unit": "%"}, {"measurement": "Hearing loss, Excess AEs due to Eflornithine", "setting": "[3]; Toxicity Grade 2", "value": 1.2, "unit": "%"}, {"measurement": "Leukopenia, Excess AEs due to Eflornithine", "setting": "[3]; Toxicity Grade 2", "value": 1.2, "unit": "%"}, {"measurement": "Nausea only, Excess AEs due to Eflornithine", "setting": "[3]; Toxicity Grade 2", "value": 0.0, "unit": "%"}, {"measurement": "Pruritis and itching, Excess AEs due to Eflornithine", "setting": "[3]; Toxicity Grade 2", "value": 0.9, "unit": "%"}, {"measurement": "Thrombocytopenia, Excess AEs due to Eflornithine", "setting": "[3]; Toxicity Grade 2", "value": 10.5, "unit": "%"}, {"measurement": "Vomiting, Excess AEs due to Eflornithine", "setting": "[3]; Toxicity Grade 2", "value": 1.1, "unit": "%"}, {"measurement": "Anemia, Excess AEs due to Eflornithine", "setting": "[3]; Toxicity Grade 3", "value": 4.5, "unit": "%"}, {"measurement": "Anorexia, Excess AEs due to Eflornithine", "setting": "[3]; Toxicity Grade 3", "value": 1.2, "unit": "%"}, {"measurement": "Constipation, Excess AEs due to Eflornithine", "setting": "[3]; Toxicity Grade 3", "value": 0.4, "unit": "%"}, {"measurement": "Diarrhea, Excess AEs due to Eflornithine", "setting": "[3]; Toxicity Grade 3", "value": 6.0, "unit": "%"}, {"measurement": "Fatigue, Excess AEs due to Eflornithine", "setting": "[3]; Toxicity Grade 3", "value": 0.8, "unit": "%"}, {"measurement": "Granulocytopenia, Excess AEs due to Eflornithine", "setting": "[3]; Toxicity Grade 3", "value": "−3.9", "unit": "%"}, {"measurement": "Headache, Excess AEs due to Eflornithine", "setting": "[3]; Toxicity Grade 3", "value": 0.4, "unit": "%"}, {"measurement": "Hearing loss, Excess AEs due to Eflornithine", "setting": "[3]; Toxicity Grade 3", "value": 0.8, "unit": "%"}, {"measurement": "Leukopenia, Excess AEs due to Eflornithine", "setting": "[3]; Toxicity Grade 3", "value": 0.0, "unit": "%"}, {"measurement": "Nausea only, Excess AEs due to Eflornithine", "setting": "[3]; Toxicity Grade 3", "value": 0.9, "unit": "%"}, {"measurement": "Pruritis and itching, Excess AEs due to Eflornithine", "setting": "[3]; Toxicity Grade 3", "value": "−0.3", "unit": "%"}, {"measurement": "Thrombocytopenia, Excess AEs due to Eflornithine", "setting": "[3]; Toxicity Grade 3", "value": 3.5, "unit": "%"}, {"measurement": "Vomiting, Excess AEs due to Eflornithine", "setting": "[3]; Toxicity Grade 3", "value": 4.5, "unit": "%"}, {"measurement": "Anemia, Excess AEs due to Eflornithine", "setting": "[3]; Toxicity Grade 4", "value": 2.0, "unit": "%"}, {"measurement": "Anorexia, Excess AEs due to Eflornithine", "setting": "[3]; Toxicity Grade 4", "value": 0.0, "unit": "%"}, {"measurement": "Constipation, Excess AEs due to Eflornithine", "setting": "[3]; Toxicity Grade 4", "value": 0.4, "unit": "%"}, {"measurement": "Diarrhea, Excess AEs due to Eflornithine", "setting": "[3]; Toxicity Grade 4", "value": 0.8, "unit": "%"}, {"measurement": "Fatigue, Excess AEs due to Eflornithine", "setting": "[3]; Toxicity Grade 4", "value": 0.0, "unit": "%"}, {"measurement": "Granulocytopenia, Excess AEs due to Eflornithine", "setting": "[3]; Toxicity Grade 4", "value": 1.8, "unit": "%"}, {"measurement": "Headache, Excess AEs due to Eflornithine", "setting": "[3]; Toxicity Grade 4", "value": 0.0, "unit": "%"}, {"measurement": "Hearing loss, Excess AEs due to Eflornithine", "setting": "[3]; Toxicity Grade 4", "value": 0.0, "unit": "%"}, {"measurement": "Leukopenia, Excess AEs due to Eflornithine", "setting": "[3]; Toxicity Grade 4", "value": 0.9, "unit": "%"}, {"measurement": "Nausea only, Excess AEs due to Eflornithine", "setting": "[3]; Toxicity Grade 4", "value": 0.0, "unit": "%"}, {"measurement": "Pruritis and itching, Excess AEs due to Eflornithine", "setting": "[3]; Toxicity Grade 4", "value": 0.0, "unit": "%"}, {"measurement": "Thrombocytopenia, Excess AEs due to Eflornithine", "setting": "[3]; Toxicity Grade 4", "value": 2.1, "unit": "%"}, {"measurement": "Vomiting, Excess AEs due to Eflornithine", "setting": "[3]; Toxicity Grade 4", "value": "−1.2", "unit": "%"}, {"measurement": "effect on intracellular proteins p21 and p27kip-1", "setting": "[4]", "value": "increase"}, {"measurement": "reduced the percentage of p53-positive cells", "setting": "[5]; P=0.04", "value": 22, "unit": "%"}, {"measurement": "reduction of the frequency of p53 mutations", "setting": "[5]", "value": "not the frequency of p53 mutations"}, {"measurement": "Ototoxicity, patients (%)", "setting": "[6]; Toxicity Grade 1", "value": "(7.9) %"}, {"measurement": "Ototoxicity, patients n", "setting": "[6]; Toxicity Grade 1", "value": 7}, {"measurement": "Ototoxicity, patients (%)", "setting": "[6]; Toxicity Grade 2", "value": "(5.6) %"}, {"measurement": "Ototoxicity, patients n", "setting": "[6]; Toxicity Grade 2", "value": 5}, {"measurement": "Ototoxicity, patients (%)", "setting": "[6]; Toxicity Grade 3", "value": "(6.7) %"}, {"measurement": "Ototoxicity, patients n", "setting": "[6]; Toxicity Grade 3", "value": 6}]}]}
